Laboratory results reported in ChEMBL document CHEMBL1157369, “Inhibition of type III secretion in Salmonella enterica serovar Typhimurium by small-molecule inhibitors” (Antimicrob Agents Chemother, 2007).
Calls of active or inactive are those of the source.

Columns and labels:
HeLa = experiment: Toxicity against human HeLa cells at 0.1 to 10 uM after 3 hrs; format: cell-based
[1] = system: Salmonella enterica subsp. enterica serovar Typhimurium; experiment: Inhibition of T3SS-1-mediated secretion of SipA protein in Salmonella enterica serovar Typhimurium 4/74 after 4 hrs by SDS-PAGE
[2] = system: Salmonella enterica subsp. enterica serovar Typhimurium; experiment: Inhibition of T3SS-1-mediated secretion of SopE protein in Salmonella enterica serovar Typhimurium 4/74 at 100 uM after 4 hrs by SDS-PAGE
[3] = system: Salmonella enterica subsp. enterica serovar Typhimurium; experiment: Inhibition of T3SS-1 associated virulence phenotype in 1.5 hrs 100 uM pretreated Salmonella enterica serovar Typhimurium 4/74 assessed as reduction of contact dependent hemolysis of sheep erythrocytes relative to wild-type
[4] = system: Salmonella enterica subsp. enterica serovar Typhimurium; experiment: Inhibition of T3SS-1-mediated secretion of SipC protein in Salmonella enterica serovar Typhimurium 4/74 after 4 hrs by SDS-PAGE
Salmonella typhimurium [5] = experiment: Suppression of Salmonella enterica serovar Typhimurium 4/74 infection-induced inflammatory response in Friesian bull intestinal ligated loop model assessed as polymorphonuclear leucocyte influx at 100 uM coadministered with bacterial challenge; format: functional, organism-based; conditions: Salmonella enterica subsp. enterica serovar Typhimurium
Salmonella typhimurium [6] = experiment: Effect on viability of Salmonella enterica serovar Typhimurium 4/74 at 100 uM after 4 hrs; format: functional, organism-based; conditions: Salmonella enterica subsp. enterica serovar Typhimurium
Salmonella typhimurium [7] = experiment: Suppression of 1.5 hrs 100 uM pretreated Salmonella enterica serovar Typhimurium 4/74 infection-induced intestinal secretory response in Friesian bull intestinal ligated loop model; format: functional, organism-based; conditions: Salmonella enterica subsp. enterica serovar Typhimurium
Salmonella typhimurium [8] = experiment: Suppression of Salmonella enterica serovar Typhimurium 4/74 infection-induced intestinal secretory response in Friesian bull intestinal ligated loop model at 100 uM coadministered with bacterial challenge; format: functional, organism-based; conditions: Salmonella enterica subsp. enterica serovar Typhimurium
Salmonella typhimurium [9] = experiment: Reduction of Salmonella enterica serovar Typhimurium 4/74 invasion of human HeLa cells preincubated at 100 uM for 1 hr relative to control; format: functional, Salmonella enterica subsp. enterica serovar Typhimurium; parameters: scale not given: the % may be the effect or the level left
Salmonella typhimurium [10] = experiment: Suppression of 1.5 hrs 100 uM pretreated Salmonella enterica serovar Typhimurium 4/74 infection-induced inflammatory response in Friesian bull intestinal ligated loop model assessed as polymorphonuclear leucocyte influx; format: functional, organism-based; conditions: Salmonella enterica subsp. enterica serovar Typhimurium
[11] = system: Salmonella enterica subsp. enterica serovar Typhimurium; experiment: Inhibition of T3SS-1-mediated secretion of SipC protein in Salmonella enterica serovar Typhimurium 4/74 at 100 uM after 4 hrs by SDS-PAGE
[12] = system: Salmonella enterica subsp. enterica serovar Typhimurium; experiment: Inhibition of T3SS-1-mediated secretion of SipA protein in Salmonella enterica serovar Typhimurium 4/74 at 100 uM after 4 hrs by SDS-PAGE
[13] = system: Salmonella enterica subsp. enterica serovar Typhimurium; experiment: Inhibition of T3SS-1-mediated secretion of SopE protein in Salmonella enterica serovar Typhimurium 4/74 after 4 hrs by SDS-PAGE

O=C(N/N=C/c1cc(Br)cc(Br)c1O)c1ccc([N+](=O)[O-])cc1
active: Activity [1] Dose-dependent effect | Activity [2] | Activity [3] | %max [4] Dose-dependent effect | Activity (Salmonella typhimurium [7]) | Activity (Salmonella typhimurium [10]) | Activity [11] | Activity [12] | Activity [13] Dose-dependent effect
inactive: Activity (Salmonella typhimurium [5]) | Activity (Salmonella typhimurium [6]) | Activity (Salmonella typhimurium [8])
Non-toxic: Activity (HeLa)
47%: Activity (Salmonella typhimurium [9])

O=C(N/N=C/c1cc(Cl)cc(Cl)c1O)c1ccccc1
inactive: Activity (Salmonella typhimurium [5]) | Activity (Salmonella typhimurium [6]) | Activity (Salmonella typhimurium [8])
60%: Activity (Salmonella typhimurium [9])
Non-toxic: Activity (HeLa)
active: Activity [1] Dose-dependent effect | Activity [2] | Activity [3] | %max [4] Dose-dependent effect | Activity (Salmonella typhimurium [7]) | Activity (Salmonella typhimurium [10]) | Activity [11] | Activity [12] | Activity [13] Dose-dependent effect
